Experimental data published in US11253526B2, “Nanostructured formulations for the delivery of silibinin and other active ingredients for treating ocular diseases” (DISTRETTO TECNOLOGICO SICILIA MICRO E NANO SISTEMI …, priority 2014, dated 2022).
“And” between values parts separate entries of the source, which are not always exact repeats. Equal values may be shown once.

Assays:
[1] = Average hydrodynamic diameter and polydispersity index by DLS / photo-correlation spectroscopy; format: physicochemical; details: DLS in PBS, pH 7.4; calixarene nanoaggregates
Protocol: The average diameter and the polydispersity index (PDI) of the SLN-A systems prepared were determined by photo-correlation spectroscopy (PCS) using a Zetasizer Nano ZSP (Malvern Instrument).
The average diameter and the polydispersity index (PDI) of the NLC-B systems coated with INU-EDA and chitosan prepared were determined by photo-correlation spectroscopy (PCS) using a Zetasizer Nano ZSP (Malvern Instrument).
(§1) The size distribution of micelles was determined through dynamic light scattering measurements using the Malvern Zetasizer Nano ZS. […] The aqueous solutions of micelles (2 mg/mL) were analyzed after filtration through cellulose membrane filters with 5 μm cut off. The average hydrodynamic diameter and the polydispersity index (PDI) were obtained using cumulative analyses of the correlation function. The zeta potential (mV) was calculated by the electrophoretic mobility and using the Smoluchowsky relation, assuming that K·a>>1 (where K and a are the Debye-Hückel parameter and the particle radius, respectively).
(§2) The average diameter, polydispersity index (PDI) and zeta potential of calixarene nanoparticles loaded and not with silibinin were measured using a Zetasizer Nano ZS-90 (Malvern Instrument), the reading was made at an angle of 90° with respect to the incident ray and analyzed in triplicate.

[2] = Zeta potential measurement; format: physicochemical; details: in PBS, pH 7.4; calixarene nanoaggregates
Protocol: The zeta potential was measured according to the principles of the laser doppler velocimetry and of the light scattering analysis (M3-PALS technique) using a Zetasizer Nano ZSP (Malvern) with a He—Ne laser, power=4.0 mW, wavelength=633 nm.
as §1, §2

[3] = Degradation of curcumin in PBS and serum-free medium; format: physicochemical
[4] = test system: ARPE-19 retinal cells; assay: Biocompatibility / toxicity on ARPE-19 retinal cells; format: cell-based
Protocol: (§3) Then, the effects of the conjugated and empty system were tested using the compound FeSO4 as oxidative insult, with changes in the cellular redox status. Over 24 hours of incubation, the cells are pre-treated for 20 h and then exposed to insult with 50 μM FeSO4 for three hours [“Pretreatment” 20 h drug+3 h insult]. The viability test conducted to evaluate the toxicity and the ability of protection from damage of the carrier in question is to assess the release of LDH in the culture medium. […] In subsequent experiments, the effects of post-treatment with calixarene based compounds were tested. Therefore, cells were treated with 50 μM FeSO4 for 5 hours and incubated for 20 hours with the various compounds.
(§4) The colloidal solutions of calixarene 1, calixarene loaded with active ingredient and active ingredient alone were tested for cytotoxicity: SIRC corneal cells (FIG. 11), J774 macrophages (FIG. 12) and ARPE retinal cells.

[5] = test system: SIRC corneal cells; assay: Cytotoxicity on SIRC corneal cells; format: cell-based; details: SIRC corneal (epithelial) cells
Protocol: as §4

[6] = test system: J774 macrophages; assay: Cytotoxicity on J774 macrophages; format: cell-based
Protocol: as §4

[7] = test system: ARPE-19 cells; assay: LDH release, 20 h pretreatment then 50 μM FeSO4 insult; format: cell-based
Protocol: as §3

[8] = test system: ARPE-19 cells; assay: LDH release, 50 μM FeSO4 for 5 hours then 20 h post-treatment; format: cell-based; details: then 20 hours with compound
Protocol: as §3

[9] = test system: cathepsin D; assay: Western blot of cathepsin D after FeSO4 insult and post-treatment; format: cell-based
Source text: Cathepsin D is an intracellular aspartyl protease, synthesized in the endoplasmic reticulum as pre-pro-enzyme that is processed up to generate active fragments. According to the cellular environment in which it resides, it can induce or inhibit apoptosis through different mechanisms. The 48 kDa fragment is an active intermediate form from which two additional active fragments are generated; therefore, its reduction is associated with the activation of the proteolytic process, vice versa its increase is indicative of an inhibition of apoptosis. In the presence of oxidative stress, the activation of cathepsin D may activate caspase 8 which in turn activates caspase 3, leading to cell death (Regulatory role of cathepsin D in apoptosis, A. Minarowska et al., (2007) Folia Histochemica et Cytobiologica) (Caspase-8-mediated apoptosis induced by oxidative stress is independent of the intrinsic pathway and dependent on cathepsins H. K. Baumgartner et al., (2007) Am J Physiol Gastrointest Liver Physiol.).

[10] = test system: J774 cells; assay: Viability / anti-inflammatory activity in J774 cells stimulated with LPS; format: cell-based
Protocol: (§5) In particular, J774 cells were stimulated with lipopolysaccharide (LPS) at a concentration of 10 μg/mL for 24 hours, stimulation with LPS induces the activation of inflammatory processes such as NFκB nuclear translocation and cytokine production, if not also release of nitrites and nitrosative stress. The cell viability was then evaluated following stimulation with LPS (10 μg/mL for 24 hours) and 2-hour pretreatment of the delivery systems being studied at the different concentrations. […] The anti-inflammatory activity of the delivery systems was then evaluated through the Western Blot analysis. […] The NFκB activation involves the production of proteins and inflammatory mediators such as cyclooxygenase 2 (COX-2) and inducible nitric oxide synthase (iNOS) and consequent increase in the production of nitrites.

[11] = test system: inducible nitric oxide synthase (iNOS); assay: Western blot, iNOS level in LPS-stimulated J774 cells; format: cell-based; details: LPS 10 μg/mL for 24 hours, pre-treatment
Protocol: as §5

[12] = test system: cyclooxygenase 2 (COX-2); assay: Western blot, COX-2 level in LPS-stimulated J774 cells; format: cell-based; details: LPS 10 μg/mL for 24 hours, pre-treatment
Protocol: as §5

[13] = test system: Uveitis induced in Lewis rats; assay: Uveitis model induced by LPS endotoxin, topical administration; format: in vivo; details: 16 and 72 hours after LPS injection
Protocol: With the aim of verifying the effectiveness of the calixarene system loaded with the active ingredient to the eye site of interest, an experiment was conducted in vivo with an Uveitis model. Uveitis was induced in 160-180 g Lewis rats by single subcutaneous injection in the hind paw of 200 ìg of the LPS endotoxin from Salmonella Minnesota diluted in 0.2 mL PBS, pH 7.4. The control group received only 0.2 mL of PBS in the hind paw. […] The eyes were enucleated for histological and immunohistochemical analysis. The aqueous humor was also taken for protein dosing.

[14] = test system: PARP-1 protein; assay: Western blotting of PARP-1 after H2O2 and post-treatment; format: cell-based; details: samples treated with H2O2, post-treatment
Protocol: Lysates of retinal cells exposed to post-treatment with the INUC8PEG system, empty or conjugated with silibinin, were analyzed by western blotting for the expression of the PARP-1 protein, a poly (ADP-ribose) polymerase of 116 kDa involved in DNA repair in response to environmental stress (Calcium Overload Is A Critical Step In Programmed Necrosis Of Arpe-19 Cells Induced By High-Concentration H2O2 Guang-Yu Li et al., (2010) Biomedical And Environmental Sciences). In vivo and in vitro, PARP-1 is processed by Caspase 3 and Caspase 7 with the formation of a 24 kDa DNA-binding domain and an 89 kDa catalytic domain that participates in the apoptosis (Importance of Poly (ADP-ribose) Polymerase and Its Cleavage in Apoptosis F. J Oliver et al., (1998) J. Biol. Chem.).

[15] = cited from earlier work
[16] = 20 h incubation, cells not exposed to FeSO4
[17] = pre-treated 20 h, then FeSO4 (50 μM)

Compound: CCCCCCCCCCCCOc1c2cc(C[N+](C)(C)CCO)cc1Cc1cc(C[N+](C)(C)CCO)cc(c1OCCCCCCCCCCCC)Cc1cc(C[N+](C)(C)CCO)cc(c1OCCCCCCCCCCCC)Cc1cc(C[N+](C)(C)CCO)cc(c1OCCCCCCCCCCCC)C2 [compound 1]
- PDI [1]: 0.29
- Z-average [1]: 44.3 nm
- Potential ζ [2]: 24 mV
- protective effect towards curcumin ([3]; PBS as a solvent): protects curcumin
- biocompatibility ([4]; ARPE-19 / ARPE retinal cells): good biocompatibility
- toxicity ([4]; concentrations 0.01-1 μM, incubated for 20 hours): caused no toxicity
- biocompatibility [5]: good biocompatibility
- biocompatibility [6]: good biocompatibility
- release of LDH [7, 16]: do not significantly change the release of LDH
- release of LDH [7, 17]: an effect not observed
- protection against insult (LDH release) [8]: individually able to protect from the redox status alteration
- expression levels of cathepsin D (48 kDa band) [9]: increases the expression levels of cathepsin D
- cell viability following stimulation with LPS ([10]; LPS 10 μg/mL for 24 hours, 2-hour pretreatment): able to restore the cell viability
- anti-inflammatory activity, rank order ([10]; macrophages subjected to inflammatory stress with LPS): calixarene loaded with curcumin>>calixarene>>curcumin alone
- levels of iNOS [11]: reduces significantly and in a dose-dependent manner
- levels of COX-2 [12]: reduces significantly and in a dose-dependent manner
- ocular inflammation / histologic damage [13]: the degree of inflammation was not reduced
- protein levels in the aqueous humor [13]: did not result in a reduction in the protein levels

Compound: Silibinin [reference compound]
- inhibition of apoptosis induced by oxidative damage [14]: reduces the apoptotic process, however with less efficiency than the conjugated carrier
- release of LDH [7, 16]: reduces the release of LDH
- release of LDH [7, 17]: an effect not observed
- protection against insult (LDH release) [8]: individually able to protect from the redox status alteration
- expression levels of cathepsin D (48 kDa band) [9]: increases the expression levels of cathepsin D
- ocular inflammation / histologic damage [13]: decreased but not significant ocular inflammation
- protein levels in the aqueous humor [13]: a trend but not significant
- solubility in water [15]: 430 mg/L

Compound: COc1cc(/C=C/C(=O)CC(=O)/C=C/c2ccc(O)c(OC)c2)ccc1O [curcumin, diferuloylmethane]
- degradation ([3]; in 30 min, 0.1 M PBS and serum-free medium): 80-90% and 90%
- levels of iNOS [11]: reduces significantly and in a dose-dependent manner
- levels of COX-2 [12]: reduces significantly and in a dose-dependent manner
- ocular inflammation / histologic damage [13]: significantly decreased the histologic damage
- protein levels in the aqueous humor [13]: most effectively determined the reduction of proteins
